Source: patent US10172835B2, “Anticancer agent composition” (J-Pharma Co., Ltd., priority 2014, dated 2019)

Legend:
[1] = test system: Panc-1 cell derived from human pancreatic cancer; test: MTT proliferation of Panc-1 cells; type: cell-based; conditions: Panc-1, culture 5 days
Method: The culture in the absence of COM-JP and in the presence of COM-JP with different concentrations in the culture medium of each cancer cell was continued for 5 days. Proliferation activity of the cell on each elapsed day was measured by a MTT method.

CHOP / mTOR = test: Western blot of CHOP induction and S6RP phosphorylation in KO99-RJ cells; type: cell-based, murine
Method: (§1) Cell extracts were prepared using a cell lysis buffer (50 mM HEPES, pH 7.4, 150 mM NaCl, 20 mM EDTA, 100 mM NaF, 10 mM Na3VO4, 0.5% nonyl phenoxypolyethoxylethanol (NP40) supplemented with a cocktail of protease inhibitors. After SDS-PAGE separation and transfer to nitrocellulose immunoblotting was performed using the following antibodies against: Akt (Cell Signaling Technologies, #9272), CHOP (#2895), cleaved caspase 3 (#9664), c-Myc (#9402), eIF2a (#9721), 4EBP1 (#9644), LC3A/B (#12741), PARP (#9542), pJnk (T183/Y185) (#9251), pSer235-236-S6RP (#4856), pSer473-Akt (#9271), pSer65-4EBP1 (#9451) and S6RP (#2217); Bax (Sigma-Aldrich, B8429); PUMA (Abcam, ab54288); Bak (Millipore, 06536); ATF4 (Santa Cruz Biotechnologies, sc200), GADD34 (sc8327), Hsp60 (sc-1722), Hsp90 (sc-13119) and XBP1 (sc-7160); ATF6 (Imgenex, IMG-273).

[2] = test system: HT-29 cell derived from human large intestine cancer; test: Tumor growth in nude mouse SOI model (HT-29 grafted onto wall of large intestine); type: in vivo
Source text: […] was expressed in a HT-29 cell derived from human large intestine cancer, and which was grafted onto the wall of large intestine of a mouse to produce a metamouse. According to this, the quantity of the size of the tumor could be determined with time with emission intensity. In FIG. 16, the size of tumor in each treatment group was shown with a bar graph. Group 1 is a control group, Groups 2 to 4 are a group in which COM-JP was intraperitoneally administered alone at 3.1, 12.5, and 50 mg/kg weight/day every day for 4 weeks, Group 5 is a group in which CDDP was intraperitoneally administered alone at 2.5 mg/kg/day three times on day 0, day 6, and day 13, Groups 6 to 8 are a group in which Groups 2 to 4 and Group 5 were combined to be administered in combination, and Group 9 is a group in which COM-JP was orally administered at 300 mg/kg/day every day for 4 weeks.

CHOP = test: Western blot of CHOP protein levels, KO99L cells; type: cell-based, murine
Method: as §1

[3] = test system: KO99L-LUC cells (tPTEN−/− tumor); test: In vivo growth of subcutaneous KO99L-LUC tumors in nude mice (volume, bioluminescence, immunohistochemistry)
Method: All mice in each experimental group were subcutaneous injected with 99KOL-LUC T-lymphoma cells (200 μL; 5.0±0.1×10^6) stably expressing a reporter luciferase gene. After two days post injection, mice were intraperitoneally administered COMPOUND-JP (50 mg/kg/day/5 days a week) which had been prepared by dissolving drug powder and mixing into saline (NaCl 0.9%). Body weights and tumor volumes were measured every five days. Tumor volumes were calculated according to the mathematical formula: V=(L*W^2)/2 (L:Length; W:Width). To conduct the bioluminescence imaging, mice received an intraperitoneal injection (150 μL, 30 mg/mL) of D-luciferin (Caliper Life Science) and were anesthetized via inhaled isoflurane (2.0%). Bioluminescence signals were monitored using the Photon imager (Biospace Lab) equipped with a highly sensitive cooled CCD camera; all images were collected 10 min post D-luciferin injection. Data were analyzed using total photon flux emission (photons/second) focused on the regions of interest (ROI) enveloping the tumor region.
Sections (4 μm) in paraffin blocks of dissected tumors were labeled with a primary rabbit phospho-S6RP antibody (#4858, Cell Signaling Technology). A second, anti-rabbit antibody conjugated with peroxidase (HRP) (SignalStain®, #8114, Cell Signaling Technology) was added to the sections before revelation with diaminobenzidine (DAB) as recommended by the manufacturer. For necrosis evaluation, sections were stained with hematoxylin/eosin/safran (HES). The images were analyzed and necrosis areas quantified using the ImageJ software (NIH).

c-myc = test: Western blot of c-myc levels, KO99L cells; type: cell-based, murine; conditions: COMPOUND-JP 10.0 μM 2.0-24 h; Velcade 8 nM 24 h; KU0063794 10.0 μM; MK-2206 10.0 μM; rapamycin 100 nM
Method: as §1

primary T-ALL cells = test: Cell viability of human T-ALL primary samples; type: cell-based; conditions: primary T-ALL cells from patients
Method: Informed consent was obtained according to institutional guidelines. Heparin-treated blood was obtained from three T-ALL patients and from two healthy donors. Patient lymphoblasts were isolated within 24 hours post collection using Ficoll-Paque PLUS density gradient following vendor recommended procedures (GE Healthcare Life Sciences).
Two different assays were employed: i) In a 96-well plate format, cells (4.0±0.1×10^4 per well; 100 μL) were incubated with effectors (48 h, 37° C.; n=4 per experiment) and then WST-1 reagent (10 μL; Roche Diagnostics) added to each well of 96-well plates, incubated, and the formazan production was measured at 490 nm; and ii) cells (2.0±0.1×10^4 per well; 100 μL) were incubated with effectors (48 h, 37° C.; n=4 per experiment) and then bromodeoxyuridine reagent (10 μL/well; Roche Diagnostics) was added to each well and incubated (8 h, 37° C.). The cells were then fixed, denatured and incubated with anti-BrdU-conjugated with peroxidase (POD) antibody (100 μL/well). Colorimetric substrate (TMB: tetramethyl-benzidine; 100 μL/well) was added and BrdU incorporation quantified via optical density measurement (450 nm) which corresponds to DNA synthesis and proliferating cells.

KO99L cells = test: Cell death by flow cytometry after DAPI staining, KO99L cells; type: cell-based, murine; conditions: 48 h
[4] = test system: HT-29 cell derived from human large intestine cancer; test: Tumor growth in nude mouse inoculated subcutaneously with HT-29 cells; type: in vivo; conditions: compared with untreated control group
Method: A HT-29 cell was inoculated subcutaneously into a mouse, and the transition of the size of the tumor lump was measured with time from the day on which the tumor has grown to a certain size, when each of COM-JP and 5-FU was used alone or in combination.

Nc1cc(COc2c(Cl)cc(C[C@H](N)C(=O)O)cc2Cl)c2oc(-c3ccccc3)nc2c1 [COMPOUND-JP, O-(5-amino-2-phenylbenzoxazole-7-yl)methyl-3,5-dichloro-L-tyrosine]
proliferation activity [1]: dose-dependent decrease | integrated stress response (CHOP induction) (CHOP / mTOR): failed to trigger the integrated stress response | mTOR inhibition (S6RP phosphorylation) (CHOP / mTOR): failed to inhibit mTOR | efficacy on tumor growth, single administration ([2]; COM-JP i.p. 3.1, 12.5, 50 mg/kg/day 4 weeks, CDDP i.p. 2.5 mg/kg/day day 0, 6, 13): not recognized | increase of the tumor ([2]; Group 9: orally 300 mg/kg/day every day for 4 weeks, vs untreated control): more significantly decreased | COMPOUND-JP mediated CHOP induction upon EAA supplementation (CHOP; 10 μM, complete medium plus EAA): prevented CHOP induction | CHOP expression, time course (CHOP; FIG. 5A, COMPOUND-JP 10.0 μM, L-Asp, Erw 2.5 units/ml, 2.0-24 h): rapidly induced CHOP expression | CHOP induction (CHOP; FIG. 5B, COMPOUND-JP 5.0 and 10.0 μM, L-Asp 2.5 units/ml, rapamycin 10.0 nM, MK-2206 10.0 μM, KU0063794 10.0 μM): profound and COMPOUND-JP dose dependent induction | decrease of mean tumor volume ([3]; 50 mg/kg/day, day 18, vs vehicle treated group, p<0.05): 45% | decrease of tumor luminescence ([3]; 50 mg/kg/day, p<0.05): 59% | necrotic response within the tumors ([3]; treated mice, untreated 4.6+/−0.5%): 10.5+/−0.5% | pS6RP staining in tumors ([3]; tumors from treated mice, 50 mg/kg/day): dramatically decreased | c-myc protein level (c-myc): decreased | cell viability (COMPOUND-JP sensitivity) (primary T-ALL cells): concentration dependent | decrease of COMPOUND-JP induced cell death upon EAA addition (KO99L cells): 2.5 fold | increase of the tumor, single administration [4]: more significant decrease
